# Data taken from patent US6747036B2, “Methods of treating leukemia” (BioChem Pharma Inc., priority 1999, dated 2004).
# Key:
# [1] = test system: Human Leukemia (HL60) xenograft; test: β-L-OddC/doxorubicin combination study in a human leukemia (HL60) xenograft survival model; format: in vivo, female SCID mice; settings: start day 10
# Description: β-L-OddC/doxorubicin Combination Study in a Human Leukemia (HL60) Xenograft Model
# A study was conducted to evaluate the synergistic or additive therapeutic effect of β-L-OddC in combination with the currently known anticancer agent Doxorubicin. The model that was utilized is a survival model consisting of female SCID mice which are inoculated in the abdomen region (i.p.) with 15×10^6 HL60 cells in log phase growth. This corresponds to day 0 of the experiment. Administration of anti-cancer drug is started 10 days after tumor cell inoculation.
# 10 animals were used per group for β-L-oddC alone, Doxorubicin alone and the combination of β-L-oddC with Doxorubicin. Each groups received the drugs alone or in combination intraperitoneal once daily for 5 consecutive days.
# Augmentation of survival time was calculated by substracting from the median survival time of group two to six, which corresponds to the day when the fifth mouse dies, the median survival time of control group 1 and multiplying by 100.
# advanced leukemia = test: Evaluation of β-L-oddC in patients with advanced leukemia previously treated with Ara-C; format: in vivo, human; settings: twelve patients treated; 30 min daily infusion for 5 consecutive days; responders 2 each at 1.08 and 1.62 mg/m2; three AML, one CML
# Description: Evaluation of β-L-oddC in Patients with Advanced Leukemia.
# The study involved treatment of patients with advanced leukemia that had been previously treated with Citarabine (Ara-C). […] Twelve patients were treated with an initial course at daily doses of 0.72 mg/m2 (4 patients), 1.08 mg/m^2 (5 patients), 1.62 mg/m^2 (3 patients) given as a daily infusion over 30 minutes for 5 consecutive days. Five patients were treated with second courses at daily doses of 1.08 mg/m^2 (3 patients), 1.62 mg/m^2 (2 patients) given over 5 consecutive days as above. 1 patient was treated with a 3rd 5 day course at the 2.43 mg/m^2 daily dose level. 4 patients (2 each at the 1.08 mg/m^2 and 1,62 mg/m^2 levels) have shown a transient decrease in peripheral blood and bone marrow blasts. Of these four patients, three had acute mylogenous leukemia and one had chronic mylogenous leukemia.
SMILES,Augmentation Survival Time ([1]; Doxorubicin 0.2 mg/kg i.p. once daily for 5 days),Augmentation Survival Time ([1]; Doxorubicin 2 mg/kg i.p. once daily for 5 days),Augmentation Survival Time ([1]; β-L-OddC 1 mg/kg i.p. once daily for 5 days),patients showing a transient decrease in peripheral blood and bone marrow blasts (advanced leukemia)
COc1cccc2c1C(=O)c1c(O)c3c(c(O)c1C2=O)C[C@@](O)(C(=O)CO)C[C@@H]3O[C@H]1C[C@H](N)[C@H](O)[C@H](C)O1 [Doxorubicin],25%,50%,,
"Nc1ccn([C@@H]2CO[C@H](CO)O2)c(=O)n1 [β-L-OddC, (−)-β-L-Dioxolane-Cytidine]",,,55%,4 patients
